The text below walks through data of patent US7022716B2, “Cyclic amine phenyl beta-3 adrenergic receptor agonists” (Wyeth, priority 2000, dated 2006).

Data set [1] deals with T1, human β3 adrenergic receptor (Homo sapiens, UniProt P13945).
T1 construct: Full length β3 AR clones (402 amino acids) containing the last 6 amino acids of hβ3-AR are prepared; expressed in transfected cells; host or cells: CHO (Chinese hamster ovary) cells
Nature of the data set: cAMP (SPA) response in CHO cells transfected with human β3 adrenergic receptor. The arrangement: key: fraction of maximal isoproterenol (10^-5 M) response. The format is cell-based. To be noted: maximal response relative to maximal response of isoproterenol at 10^-5 M. The essentials: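 Reactions were stopped with 0.2N HCl and neutralised, and cAMP was measured by SPA. Activity is expressed as percent of the maximal 10^−5 M isoproterenol response.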

For orientation: melting point means the temperature, or range, at which the solid turns liquid.

T1 sequence (P13945 whole entry): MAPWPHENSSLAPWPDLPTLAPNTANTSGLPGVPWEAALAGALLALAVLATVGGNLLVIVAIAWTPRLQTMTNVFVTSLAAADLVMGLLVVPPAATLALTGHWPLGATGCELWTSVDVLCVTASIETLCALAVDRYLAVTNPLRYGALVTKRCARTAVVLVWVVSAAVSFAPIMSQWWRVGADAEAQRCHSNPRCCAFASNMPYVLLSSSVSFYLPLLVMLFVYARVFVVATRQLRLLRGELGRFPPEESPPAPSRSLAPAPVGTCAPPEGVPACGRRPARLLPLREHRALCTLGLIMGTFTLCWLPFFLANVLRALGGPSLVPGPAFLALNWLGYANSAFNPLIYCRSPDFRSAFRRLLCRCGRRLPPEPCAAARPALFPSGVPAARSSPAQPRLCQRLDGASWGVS

Turning to `COc1ccc(C(=O)Nc2ccc(N3CCC(NC[C@H](O)COc4cccc5[nH]c6ccccc6c45)CC3)cc2)cc1OC` [Example 389, N-[4-(4-{[(2S)-3-(9H-Carbazol-4-yloxy)-2-hydroxypropyl]amino}-1-piperidinyl)phenyl]3,4-dimethoxybenzamide], the melting point lay in the range of 183 to 191 °C. In addition, the “IA(β3)” value in data set [1] is 0.61.
The like results for `COC(=O)CNC(=O)c1ccc(N2CCC(NC[C@H](O)c3ccc(O)c(NS(C)(=O)=O)c3)CC2)cc1` [Example 208, Methyl[(4-{4-[((2R)-2-hydroxy-2-{4-hydroxy-3-[(methylsulfonyl)amino]phenyl}ethyl)amino]-1-piperidinyl}benzoyl)amino]acetate] were, in that order, > 75 °C (dec.) and 0.97.
The like results for `CCOC(=O)CC[C@H](NC(=O)c1ccc(N2CCC(NC[C@H](O)c3ccc(O)c(NS(C)(=O)=O)c3)CC2)cc1)C(=O)OCC` [Example 192, Diethyl(2S)-2-[(4-{4-[((2R)-2-hydroxy-2-{4-hydroxy-3-[(methylsulfonyl)amino]phenyl}ethyl)amino]-1-piperidinyl}benzoyl)amino]pentanedioate] were, in that order, > 75 °C (dec.) and 0.97.
`O=C(CCC1CCCC1)Nc1ccc(N2CCC(NC[C@H](O)COc3cccc4[nH]c(=O)[nH]c34)CC2)cc1` [Example 392, 3-Cyclopentyl-N-{4-[4-({(2S)-2-hydroxy-3-[(2-oxo-2,3-dihydro-1H-benzimidazol-4-yl)oxy]propyl}amino)-1-piperidinyl]phenyl}propanamide] showed a melting point of 140 to 144 °C. In addition, the “IA(β3)” value in data set [1] is on record as 0.9.
The like results for `CCOC(=O)CCNC(=O)c1ccc(N2CCC(NC[C@H](O)c3ccc(O)c(NS(C)(=O)=O)c3)CC2)cc1` [Example 193, Ethyl3-[(4-{4-[((2R)-2-hydroxy-2-{4-hydroxy-3-[(methylsulfonyl)amino]phenyl}-ethyl)amino]-1-piperidinyl}benzoyl)amino]propanoate.] were, in that order, > 95 °C (dec.) and 0.9.
In turn, `CCOC(=O)/C=C/c1ccc(N2CCC(NC[C@H](O)c3ccc(O)c(NS(C)(=O)=O)c3)CC2)cc1` [Example 183, (E)-3-(4-{4-[(2R)-2-Hydroxy-2-(4-hydroxy-3-methanesulfonylamino-phenyl)-ethylamino]-piperidin-1-yl}-phenyl)-acrylic acid ethyl ester] showed a melting point of 103 to 106 °C. In addition, the “IA(β3)” value in data set [1] amounted to 0.84.
The like results for `CCOC(=O)C(=Cc1ccc(N2CCC(NCC(O)c3ccc(O)c(NS(C)(=O)=O)c3)CC2)cc1)C(=O)OCC` (stereo not drawn) [Example 188, 2-(4-{4-[2-Hydroxy-2-(4-hydroxy-3-methanesulfonylamino-phenyl)-ethylamino]-piperidin-1-yl}-benzylidene)-malonic acid diethyl ester] were, in that order, > 80 °C (dec.) and 0.91.
The like results for `CS(=O)(=O)Nc1cc([C@@H](O)CNC2CCN(c3ccc(-c4nnn(CC(=O)O)n4)cc3)CC2)ccc1O` [Example 100, [5-(4-{4-[((2R)-2-Hydroxy-2-{4-hydroxy-3-[(methylsulfonyl)amino]phenyl}ethyl)amino]-1-piperidinyl}phenyl)-2H-tetraazol-2-yl]acetic acid] were, in that order, > 240 °C (dec.) and 0.9.
Molecule `CCOC(=O)CN1C(=O)SC(Cc2ccc(N3CCC(NC[C@H](O)c4ccc(O)c(NS(C)(=O)=O)c4)CC3)cc2)C1=O` (stereo partly drawn) [Example 66, 5-[[4-[4-[[(R)-2-Hydroxy-2-[4-hydroxy-3-[(methylsulfonyl)amino]phenyl]ethyl]amino]-1-piperidinyl]phenyl]methyl]-2,4-dioxo-3-thiazolidineacetic acid ethyl-ester] had a melting point of 153 to 155 °C. In addition, the “IA(β3)” value in data set [1] is reported as 0.81.
